Ends that are not written are not given here.
Legend:
[1] = system: mTLR1 TM peptides (fluorescein labeled donors); assay: FRET between fluorescein and rhodamine labeled TM peptides in PC:Cholesterol LUVs; format: binding, mouse; conditions: rhodamine conjugated acceptor added to fluorescein TLR1 TM donors
Procedure: Large unilamellar vesicles (LUVs) composed of phosphatidylcholine (PC) and cholesterol (10:1, w/w), were prepared using the extrusion method as described previously (Cohen et al, 2008). The fluorescence experiments were performed with pairs of peptides using fluorescein labeled peptides as donors and rhodamine labeled peptides as acceptors. Fluorescence spectra were obtained at room temperature, with excitation set at 494 nm (10 nm slit) and emission scan at 500-600 nm (10 nm slits), by a Cary eclipse fluorescence spectrophotometer (Varian Inc., Palo Alto, Calif.). In a typical experiment, a fluorescein labeled peptide was first added from a stock solution in DMSO (final concentration of 0.1 μM peptide and 0.25% (v/v) DMSO) to a solution containing PC:Cholesterol LUVs (100 μM) in HEPES buffer. This was followed by the successive addition of rhodamine labeled peptides to a final concentration ranging from 0.025 to 0.4 μM. Fluorescence spectra were obtained before and after the addition of the rhodamine labeled peptides. Fluorescence values were corrected by subtracting the changes in emission obtained by adding HEPES only. […]
Fluorescence Resonance Energy Transfer (FRET) analysis was used for exploring the interactions of the synthetic TM peptides within large unilameler vesicles (LUVs). […]

XTT cytotoxicity assay = format: cell-based; conditions: mouse, RAW264.7 murine macrophages, RAW264.7 cells, 2 hours incubation, 0.78-100 μM, read-out: LC50 (Lethal Concentration at which 50% of cells die)
Procedure: 1×10^4 cells (RAW264.7 murine macrophages, ATCC® Number-TIB-71) per well were grown over night on a 96-well plate. The following day, the media were replaced with 90 μl fresh culture medium and 10 μl solution buffer containing different concentrations of the different peptides mTLR2 TM N′-CtoA (SEQ ID NO:88), mTLR2 TM C′-CtoA (SEQ ID NO:86), mTLR1 TM N′ (SEQ ID NO:77) and mTLR1 TM C′-CtoA (SEQ ID NO:83). Peptide concentrations range from 0.78-100 μM. The cells were then incubated for 2 hours before adding to each well 50 μl of 2,3-bis[2-methoxy-4-nitro-5-sulfophenyl]-2H-tetrazolium-5-carboxanilide inner salt (XTT) reaction solution (Biological Industries). Viability was determined as described previously (Papo et al., 2004 and Papo et al., 2006). The LC50 (the concentration at which 50% of the cells die) for each peptide was obtained from the dose-dependent cell viability curves.

TLR2 [2] = assay: NFkB luciferase reporter in PC3 cells activated with LTA; format: cell-based, human; conditions: peptide 20 μM, LTA 50 μg/ml
Procedure: (§1) Cells were transfected with a luciferase plasmid under the transcriptional control of NFkB. Upon activation, NFkB trans-locates to the nucleus and induces the expression of luciferase. Cells were activated in the presence of LTA (50 μg/ml) or LPS (1 μg/ml) for 24 hours and were incubated for 2 hours with the hTLR2 TM C′ peptide (SEQ ID NO:83) ([…]) prior to the addition of the activator and washed twice with PBS. Detection of Luc expression was performed by the Steady-Glo assay kit.
(§2) The NFkB responsive element has been widely researched and is known to serve as a specific indication for the presence of the NFkB molecule inside the nucleus. Such a translocation occurs upon activation of the signaling cascade of TLRs, which leads to targeted transcription. This DNA element was introduced into a Luciferase expressing plasmid upstream to the gene thus generating a reporter plasmid for the presence of NFkB in the nucleus. Cells were transfected with the plasmid and 24 hours later were treated with LPS/LTA to induce the signaling cascade through TLR4 and TLR2, respectively. To validate activation, the levels of Luc expression were evaluated using the Steady-Glo kit (Promega) according to manufactures instructions.

TLR4 = assay: NFkB luciferase reporter in PC3 cells activated with LPS; format: cell-based, human; conditions: peptide 20 μM, LPS 1 μg/ml
Procedure: as §1, §2

PC3 = assay: Toxicity to PC3 cell line; format: cell-based, human; conditions: up to 100 μM (maximal concentration tested)
Procedure: (§3) We synthesized peptides corresponding to either the N-terminus or C-terminus domains of the TM domains of human TLR1, 2 and 5. Each TM domain was divided into two overlapping sequences (Table 2). Activity and toxicity experiments were performed on a peptide corresponding to the C-terminus domain of the TM domain of human TLR2, including the adjacent 5 amino acids from the putative intracellular domain (SEQ ID NO:83, hTLR2-C in Table 2 below, extended with two lysine residues at each of its termini to increase solubility). The peptide was not toxic to either PC3 or LNCaP cell lines at a concentration of up to 100 μM (the maximal concentration tested, data not shown).

LNCaP = assay: Toxicity to LNCaP cell line; format: cell-based, human; conditions: up to 100 μM (maximal concentration tested)
Procedure: as §3

PC3 cells = assay: mRNA expression of TGFβ and VEGF in cells activated with LPS/LTA; format: cell-based, human; conditions: peptide 20 μM, LPS/LTA stimulation
Procedure: FIGS. 13A-B show mRNA expression of TGFβ (B) and VEGF (A) in LNCaP and PC3 cells in the absence or presence of LPS/LTA and the peptide hTLR2 TM C′ (SEQ ID NO:83) at a concentration of 20 μM.
One of the main features of metastatic cells is their ability to influence their environment due to the secretion of various cytokines. Two of the most influential cytokines are VEGF which induces the formation of blood vessels, and TGFβ which e.g. induces tolerance of immune cells and inhibits apoptosis. We therefore determined the expression of the mRNA of these cytokines in the cells upon their activation with LPS and LTA and the effect of the peptide on the activation. […] These findings lead us to the hypothesis that the presence of the TLRs on PC3 cells contribute to the severity (aggressiveness) of the cancer and its ability to form metastases. Thus, the TLR TM peptides of the invention can be used as new diagnostic biomarkers, which can indicate the rate of growth and the ability of the cells to form metastases.

TLR2 [3] = assay: Murine model of acute septic shock caused by LTA (TLR2 hyperactivation); format: in vivo, mice; conditions: during the whole experiment
Procedure: To examine the effect of TLR TM peptides on acute septic shock driven by TLR2 hyperactivation we have used a murine model as previously described (Meng et al., 2004). Briefly, 12 weeks old C57 Black female mice (supplied by Harlan) were treated with 100 μg of LTA injected IP in a saline solution (pH 6.5) containing 200 μg/ml of D-galactoseamine (Calbiochem). Treated mice received two injections of peptide at doses of 1, 5 and 10 mg/kg. First injection was given at the time of LTA injection, second injection was given 2 hrs (1 mg/kg) or 12 hrs (5 and 10 mg/kg) later. Animals were monitored for survival for 96 hours after LTA injection. Peptides used for in-vivo experiments were treated twice with 20% acetic acid in order to replace the trifluoroacetate anion added during HPLC purification. For all groups n=8.
In order to test the activity of our peptides in-vivo, we have used a murine model for acute septic shock caused by hyperactivation of TLR2. Mice were injected i.p. with 100 μg of LTA and then treated with mTLR2 TM C′-CtoA peptide (SEQ ID NO:86) in different regimes (see materials and methods section (xi)) or with saline only.

| Substance | CC50 at 2 h (XTT cytotoxicity assay) | further results |
| --- | --- | --- |
| GLRILLLKV-NH2 (not fully specified; printed as GLRILLLKV-NH2) [Cp, the core TM peptide of TCRα, negative control] | – | fluorescence signal decrease (FRET), negative control [1]: no significant fluorescence signal decrease |
| KKLAVTGAFLALYFDLPWKK-NH2 [mTLR1 C′ TM (C to A)] | 50 µM | – |
| KKALVSGVAAALLLLILLVGKK-NH2 [mTLR2 N′ TM (C to A)] | > 100 µM | – |
| KKLAVTGAFLASYFDLPWKK-NH2 [mTLR1 C′ TM (C to A + L605S), kkLAVTGAFLASYFDLPWkk] | > 100 µM | – |
| KKLILLTGVLCHRFHGLWKK-NH2 [hTLR2 TM C′] | – | inhibition of Luc expression (TLR2 [2]): 40%; inhibition of activation (Luc expression) (TLR4): could not inhibit; toxicity (PC3): not toxic; toxicity (LNCaP): not toxic; levels of expression of TGFβ and VEGF mRNA (PC3 cells): drop in the levels of expression |
| KKLILLVGALCHHFHGLWKK-NH2 [mTLR2 C′ TM, kkLILLVGALCHHFHGLWkk] | 50 µM | – |
| KKLILLVGALAHHFHGLWKK-NH2 [mTLR2 C′ TM (C to A)] | 50 µM | adverse effects in treated mice (TLR2 [3]): no noticeable adverse effects |
| KKLAVTGAFLCLYFDLPWKK-NH2 [mTLR1 C′ TM, kkLAVTGAFLCLYFDLPWkk] | > 100 µM | – |
| KKLLTVTIGATMLVLAVTGAKK-NH2 [mTLR1 N′ TM] | > 100 µM | – |
